Results from patent publication US10947389B2, “Composition, film, near infrared cut filter, laminate, pattern forming method, solid image pickup element, image display device, infrared sensor, and color filter” (FUJIFILM Corporation, priority 2016, dated 2021).

Legend:
[1] = Evaluation of absorption maximum and absorbance ratio (500 nm/λmax) in solution; type: physicochemical; details: for Absorbance Ratio (500 nm/λmax) / Absorption Maximum (nm): solvent chloroform; for Second Near Infrared Absorbing Compound λmax (nm): absorption maximum of the second near infrared absorbing compound; for λmax (nm) of Second Near Infrared Absorbing Compound: as listed in Table 58
Description: In this specification, “having an absorption maximum in a wavelength range of 650 to 1000 nm” denotes having a maximum absorbance in a wavelength range of 650 to 1000 nm in an absorption spectrum of the near infrared absorbing compound in a solution. Examples of a measurement solvent used for the measurement of the absorption spectra of the near infrared absorbing compound in the solution include chloroform, methanol, dimethyl sulfoxide, ethyl acetate, and tetrahydrofuran. In the case of a compound which is soluble in chloroform, chloroform is used as the measurement solvent. In the case of a compound which is not soluble in chloroform, methanol is used. In addition, In the case of a compound which is not soluble in chloroform and methanol, dimethyl sulfoxide is used.
Each of the compounds was dissolved in a measurement solvent shown in the following tables (concentration: 2.5×10^−6 mol/L) to measure an absorption spectrum (optical path length: 10 mm).
In addition, an absorbance ratio (500 nm/λmax) as a value obtained by dividing an absorbance at a wavelength of 500 nm by an absorbance at an absorption maximum was evaluated based on the following criteria.
A: the absorbance ratio (500 nm/λmax) was 0.04 or lower
B: the absorbance ratio (500 nm/λmax) was higher 0.04 and 0.08 or lower
C: the absorbance ratio (500 nm/λmax) was higher than 0.08

[2] = Evaluation of solubility in water at 23° C.; type: physicochemical; details: stirred for 1 hour
Description: Each of the compounds was added to water at 23° C. under the atmospheric pressure, the components were stirred for 1 hour, and the solubility of the compound in water was obtained. The solubility of the compound was evaluated based on the following criteria.
A: the solubility in water at 23° C. was 0.1 mass % or lower
B: the solubility in water at 23° C. was higher than 0.1 mass % and 1 mass % or lower
C: the solubility in water at 23° C. was higher than 1 mass %

Row | Compound | Absorbance Ratio (500 nm/λmax) [1] | Absorption Maximum (nm) [1] [nm] | Solubility [2] | Second Near Infrared Absorbing Compound λmax (nm) [1] [nm] | λmax (nm) of Second Near Infrared Absorbing Compound [1] [nm]
1 | CC(CCC(COc1cccc(-c2c3/c(=C(\C#N)c4cnc5ccccc5n4)n(B(c4ccccc4)c4ccccc4)c(-c4cccc(OCC(CCC(C)CC(C)(C)C)C(C)CC(C)(C)C)c4)c3/c(=C(\C#N)c3cnc4ccccc4n3)n2B(c2ccccc2)c2ccccc2)c1)C(C)CC(C)(C)C)CC(C)(C)C (stereo not drawn) [III-28] | A (the absorbance ratio (500 nm/λmax) was 0.04 or lower) | 863 | A (the solubility in water at 23 °C was 0.1 mass % or lower) |  | 
2 | Cc1ccc2oc(/C(C#N)=c3/c4c(-c5cccc(OCC(CCC(C)CC(C)(C)C)C(C)CC(C)(C)C)c5)n(B5Oc6ccccc6O5)/c(=C(/C#N)c5nc6ccccc6s5)c4c(-c4cccc(OCC(CCC(C)CC(C)(C)C)C(C)CC(C)(C)C)c4)n3B3Oc4ccccc4O3)nc2c1 (stereo not drawn) [IV-92] | A (the absorbance ratio (500 nm/λmax) was 0.04 or lower) | 701 | A (the solubility in water at 23 °C was 0.1 mass % or lower) | 702 | 701
3 | CCCCC(CC)CC(=O)NC1=CC(=[N+](c2ccc(C)cc2)c2ccc(C)cc2)C=C/C1=C1\C(=O)C(c2ccc(N(c3ccc(C)cc3)c3ccc(C)cc3)cc2NC(=O)CC(CC)CCCC)=C1[O-] (stereo not drawn) [Compound Q-3] | A (the absorbance ratio (500 nm/λmax) was 0.04 or lower) | 737 | A (the solubility in water at 23 °C was 0.1 mass % or lower) |  | 
4 | CC(CCC(COc1cccc(-c2c3/c(=C(\C#N)c4ccc5ccccc5n4)n(B(c4ccccc4)c4ccccc4)c(-c4cccc(OCC(CCC(C)CC(C)(C)C)C(C)CC(C)(C)C)c4)c3/c(=C(\C#N)c3ccc4ccccc4n3)n2B(c2ccccc2)c2ccccc2)c1)C(C)CC(C)(C)C)CC(C)(C)C (stereo not drawn) [III-358] | A (the absorbance ratio (500 nm/λmax) was 0.04 or lower) | 814 | A (the solubility in water at 23 °C was 0.1 mass % or lower) |  | 
5 | N#CC(c1nc2ccccc2s1)=c1c2c(-c3ccc(O)cc3)n(B(c3ccccc3)c3ccccc3)c(=C(C#N)c3nc4ccccc4s3)c2c(-c2ccc(O)cc2)n1B(c1ccccc1)c1ccccc1 [II-524] | A (the absorbance ratio (500 nm/λmax) was 0.04 or lower) | 779 | A (the solubility in water at 23 °C was 0.1 mass % or lower) |  | 
6 | CCCCCCCCCCC(CCCCCCCC)COc1cccc(-c2c3c(=C(C#N)c4cnc5ccccc5n4)n(B(c4ccccc4)c4ccccc4)c(-c4cccc(OCC(CCCCCCCC)CCCCCCCCCC)c4)c3c(=C(C#N)c3cnc4ccccc4n3)n2B(c2ccccc2)c2ccccc2)c1 (stereo not drawn) [III-29] | A (the absorbance ratio (500 nm/λmax) was 0.04 or lower) | 863 | A (the solubility in water at 23 °C was 0.1 mass % or lower) |  | 
7 | CCCCN1/C(=C/C2=C([O-])C(=C/c3sc4c5ccccc5ccc4[n+]3CCCC)/C2=O)Sc2c1ccc1ccccc21 [Compound Q-54] | A (the absorbance ratio (500 nm/λmax) was 0.04 or lower) | 698 | A (the solubility in water at 23 °C was 0.1 mass % or lower) |  | 
8 | Cc1ccc2oc(/C(C#N)=c3/c4c(-c5cccc(OCC(CCC(C)CC(C)(C)C)C(C)CC(C)(C)C)c5)n(B(c5ccccc5)c5ccccc5)/c(=C(/C#N)c5nc6cc(C)ccc6o5)c4c(-c4cccc(OCC(CCC(C)CC(C)(C)C)C(C)CC(C)(C)C)c4)n3B(c3ccccc3)c3ccccc3)nc2c1 (stereo not drawn) [II-186] | A (the absorbance ratio (500 nm/λmax) was 0.04 or lower) | 748 | A (the solubility in water at 23 °C was 0.1 mass % or lower) | 743 | 
9 | CC(CCC(COc1cccc(-c2c3/c(=C(\C#N)c4nc5cc(Cl)ccc5o4)n(B4Oc5ccccc5O4)c(-c4cccc(OCC(CCC(C)CC(C)(C)C)C(C)CC(C)(C)C)c4)c3/c(=C(\C#N)c3nc4cc(Cl)ccc4o3)n2B2Oc3ccccc3O2)c1)C(C)CC(C)(C)C)CC(C)(C)C (stereo not drawn) [II-408] | A (the absorbance ratio (500 nm/λmax) was 0.04 or lower) | 680 | A (the solubility in water at 23 °C was 0.1 mass % or lower) |  | 680
10 | Cc1ccc2oc(C(C#N)=c3c4c(-c5cccc(OCC(CCCCCCCC(C)C)CCCCCC(C)C)c5)n(B5Oc6cc7ccccc7cc6O5)c(=C(C#N)c5nc6cc(C)ccc6o5)c4c(-c4cccc(OCC(CCCCCCCC(C)C)CCCCCC(C)C)c4)n3B3Oc4cc5ccccc5cc4O3)nc2c1 (stereo not drawn) [II-274] | A (the absorbance ratio (500 nm/λmax) was 0.04 or lower) | 685 | A (the solubility in water at 23 °C was 0.1 mass % or lower) |  | 685
11 | Cc1ccc2oc(C(C#N)=c3c4c(-c5ccc(OCC(CCCCCCCC(C)C)CCCCCC(C)C)cc5)n(B(c5ccccc5)c5ccccc5)c(=C(C#N)c5nc6cc(C)ccc6o5)c4c(-c4ccc(OCC(CCCCCCCC(C)C)CCCCCC(C)C)cc4)n3B(c3ccccc3)c3ccccc3)nc2c1 (stereo not drawn) [II-167] | A (the absorbance ratio (500 nm/λmax) was 0.04 or lower) | 745 | A (the solubility in water at 23 °C was 0.1 mass % or lower) |  | 
12 | CC(C)CCCCCCCC(CCCCCC(C)C)COc1ccc(-c2c3c(=C(C#N)c4nc5ccccc5s4)n(B(c4ccccc4)c4ccccc4)c(-c4ccc(OCC(CCCCCCCC(C)C)CCCCCC(C)C)cc4)c3c(=C(C#N)c3nc4ccccc4s3)n2B(c2ccccc2)c2ccccc2)cc1 (stereo not drawn) [II-507] | A (the absorbance ratio (500 nm/λmax) was 0.04 or lower) | 780 | A (the solubility in water at 23 °C was 0.1 mass % or lower) |  | 
13 | CC(CCC(COc1ccc(-c2c3/c(=C(\C#N)c4cnc5cc(Cl)c(Cl)cc5n4)n(B(c4ccccc4)c4ccccc4)c(-c4ccc(OCC(CCC(C)CC(C)(C)C)C(C)CC(C)(C)C)cc4)c3/c(=C(\C#N)c3cnc4cc(Cl)c(Cl)cc4n3)n2B(c2ccccc2)c2ccccc2)cc1)C(C)CC(C)(C)C)CC(C)(C)C (stereo not drawn) [III-168] | A (the absorbance ratio (500 nm/λmax) was 0.04 or lower) | 885 | A (the solubility in water at 23 °C was 0.1 mass % or lower) |  | 
14 | CC(C)CCCCCCCC(CCCCCC(C)C)COc1ccc(-c2c3c(=C(C#N)c4nc5ccccc5n4C)n(B(c4ccccc4)c4ccccc4)c(-c4ccc(OCC(CCCCCCCC(C)C)CCCCCC(C)C)cc4)c3c(=C(C#N)c3nc4ccccc4n3C)n2B(c2ccccc2)c2ccccc2)cc1 (stereo not drawn) [II-697] | A (the absorbance ratio (500 nm/λmax) was 0.04 or lower) | 743 | A (the solubility in water at 23 °C was 0.1 mass % or lower) |  | 
15 | Cc1ccccc1B(c1ccccc1C)n1c(-c2ccc(OCC(CCCCCCCC(C)C)CCCCCC(C)C)cc2)c2c(=C(C#N)c3nc4ccccc4s3)n(B(c3ccccc3C)c3ccccc3C)c(-c3ccc(OCC(CCCCCCCC(C)C)CCCCCC(C)C)cc3)c2c1=C(C#N)c1nc2ccccc2s1 (stereo not drawn) [II-541] | A (the absorbance ratio (500 nm/λmax) was 0.04 or lower) | 772 | A (the solubility in water at 23 °C was 0.1 mass % or lower) |  | 
16 | Cc1ccc2c(c1)OB(n1c(-c3cccc(OCC(CCC(C)CC(C)(C)C)C(C)CC(C)(C)C)c3)c3/c(=C(\C#N)c4nc5cc(C)ccc5o4)n(B4Oc5ccc(C)cc5O4)c(-c4cccc(OCC(CCC(C)CC(C)(C)C)C(C)CC(C)(C)C)c4)c3/c1=C(\C#N)c1nc3cc(C)ccc3o1)O2 (stereo not drawn) [II-269] | A (the absorbance ratio (500 nm/λmax) was 0.04 or lower) | 685 | A (the solubility in water at 23 °C was 0.1 mass % or lower) |  | 685
17 | Cc1ccc2oc(/C(C#N)=c3/c4c(-c5ccc(O)cc5)n(B(c5ccccc5)c5ccccc5)/c(=C(/C#N)c5nc6cc(C)ccc6o5)c4c(-c4ccc(O)cc4)n3B(c3ccccc3)c3ccccc3)nc2c1 [II-184] | A (the absorbance ratio (500 nm/λmax) was 0.04 or lower) | 749 | A (the solubility in water at 23 °C was 0.1 mass % or lower) |  | 
18 | Cc1ccc2oc(C(C#N)=c3c4c(-c5cccc(OCC(CCCCCCCC(C)C)CCCCCC(C)C)c5)n(B(c5ccccc5)c5ccccc5)c(=C(C#N)c5nc6cc(C)ccc6o5)c4c(-c4cccc(OCC(CCCCCCCC(C)C)CCCCCC(C)C)c4)n3B(c3ccccc3)c3ccccc3)nc2c1 (stereo not drawn) [II-185] | A (the absorbance ratio (500 nm/λmax) was 0.04 or lower) | 748 | A (the solubility in water at 23 °C was 0.1 mass % or lower) |  | 
